Each structure is given as a SMILES string.

This series is described as follows: Human HepG2 cell viability assay in 384 well format. It is filed as toxicity, cell-based. Also noted: dose 125 nL, time 70.5 hour; cytotoxicity at 70.5 h: concentration not given beside the values. As to conditions: HepG2 cells, read-out: Inhibition.
`Cc1n[nH]c(C)c1CCc1nc(C2CC2)n[nH]1`: the cytotoxicity at 70.5 h is -6.37%. For the compound `COc1cc(C)c(C)cc1S(=O)(=O)NCC(O)c1cccn1C` (centres undefined), the cytotoxicity at 70.5 h is -5.03%. For the compound `Cc1cc(NC(=O)NCC(c2ccsc2)N(C)C)n(C)n1` (centres undefined), the cytotoxicity at 70.5 h was -10.2%. `Cc1ccc(C)c(OC(C)C(=O)Nc2cccnc2)c1` (centres undefined): the cytotoxicity at 70.5 h is -3.32%.

On to `CCN1CC2(CCC1=O)CCN(CCc1nccn1C)CC2`, for which the cytotoxicity at 70.5 h was -6.75%. Regarding `COc1ccc(Cn2nc(C(N)=O)ccc2=O)c(Cl)c1`, the cytotoxicity at 70.5 h was -3.77%. With `COCC(=O)N1CC(c2ccnc(Nc3cc(C(F)(F)F)ccn3)n2)C1`, the cytotoxicity at 70.5 h came out at 10.3%. The result for `CCS(=O)(=O)NCCCNc1cc(N2CCCC2CO)ncn1` (centres undefined) reads -4.09%. In the case of `CCN(Cc1noc(CC(C)C)n1)C[C@]1(O)CCCN2CCCC[C@@H]21`, the cytotoxicity at 70.5 h was -11.7%. For the compound `NC(=O)CC1CCN(C(=O)NCCc2ccc(Cl)s2)CC1`, the cytotoxicity at 70.5 h was -4.12%.

`CCc1nc(C2CCCN2C(=O)CCc2ccc3c(c2)OCO3)no1` (centres undefined): the cytotoxicity at 70.5 h was -24.9%. Under `CCc1ccc(CN(C)c2cc(COC)nc3ccnn23)cc1` stands -2.38%; under `CC(C)c1noc(CCC(=O)Nc2cc(F)ccc2F)n1`, 12.9%; under `CCCN1CCCC2(CCN(Cc3cncn3C3CCCC3)C2)C1=O` (centres undefined), -8.03%. The result for `CCC(CC)Cn1ncc(N2CCOCC2)cc1=O` reads -1.42%; that for `CCOc1cc2c(cc1CN1CCC3(CCCNC3=O)C1)CCC2` (centres undefined), 30%.

As for `O=C1CCC(c2ccc(Cl)cc2)=NN1CN1CCSCC1`, the cytotoxicity at 70.5 h is -15.1%. Under `Cc1ccc2oc(C(=O)N3CCCC(n4nc(C)cc4C)C3)cc2n1` (centres undefined) stands -2.12%.

As for `CCOCC1CCN(C(=O)c2sc(C)cc2OC(F)F)CC1`, the cytotoxicity at 70.5 h was -5.96%.

`Cc1cccc(C2CCCN(C(=O)CN3CCC(C(N)=O)CC3)C2)c1` (centres undefined): the cytotoxicity at 70.5 h is -4.32%.

Regarding `Cc1nnc(NCC(c2ccco2)N2CCCC2)c(C#N)c1C` (centres undefined), the cytotoxicity at 70.5 h worked out at 3.51%.

`Cc1nc(CN2CCO[C@@H]3CNCC[C@@H]3C2)cs1`: the cytotoxicity at 70.5 h is -5.71%.

As for `OCCNc1cc(-c2ccccc2)ncn1`, the cytotoxicity at 70.5 h is -1.96%.

In the case of `Cc1cc(C(=O)NCc2ccc(F)cc2)c2c(C3CCCN3)noc2n1` (centres undefined), the cytotoxicity at 70.5 h was -6.52%.

As for `O=C(CC1CCCC1)N[C@H]1CN(Cc2c[nH]cn2)C[C@@H]1C1CC1`, the cytotoxicity at 70.5 h was 20.4%.

Regarding `Cn1cc(CC2CCN(C(=O)NCc3cccc(C(N)=O)c3)C2)cn1` (centres undefined), the cytotoxicity at 70.5 h is -13.1%. On to `O=C(Cc1ccc(F)cc1)NCCNc1cc(N2CCCC2)ncn1`, for which the cytotoxicity at 70.5 h turned out to be 22.2%. As to `CC(C)Nc1ncnc2c1CCN(C(=O)[C@H]1CCCO1)CC2`, the cytotoxicity at 70.5 h is -6.46%.

In the case of `Cn1cnc(S(=O)(=O)NCCCN2CCCC2=O)c1Cl`, the cytotoxicity at 70.5 h was -2.39%. With `CCc1nn(C)c(Cl)c1CN1CCCC2(C1)CN(C)C(=O)O2` (centres undefined), the cytotoxicity at 70.5 h was -11.8%. Take `Cn1nc(C2CCCN(Cc3ccc(F)cc3)C2)c2nccnc21` (centres undefined): the cytotoxicity at 70.5 h is 5.25%. Under `CCC(O)CN1CCN(C(=O)c2ccc3c(c2)COC3)CC1` (centres undefined) stands 14.3%; under `CC(C)CS(=O)(=O)N1C[C@H]2C[C@H](C(=O)N3CCN(C)CC3)[C@@H](C1)O2`, -3.23%. As for `CCc1nnc(C(C)N2CCN(CCC(=O)NC3CC3)CC2)o1` (centres undefined), the cytotoxicity at 70.5 h worked out at 22%.

With `Cn1nccc1CCC(=O)N1CCCC(Cc2cccnc2)C1` (centres undefined), the cytotoxicity at 70.5 h was -5.31%. On to `Cc1csc(CN2CC[C@H]3C(=O)N(c4cccnc4)CCO[C@H]3C2)n1`, for which the cytotoxicity at 70.5 h came out at 11%. The result for `CCN1CC(COC(=O)c2ccccc2Cl)CC1=O` (centres undefined) reads 7.47%; that for `COc1cccc2c1OCC(NCc1cnn(-c3ccccc3F)c1)C2` (centres undefined), -0.785%. The result for `Cc1ncsc1CN(Cc1ccccc1)Cc1ccncc1` reads 8.23%; that for `COc1ccccc1OCCCN1C(=O)CCNC1=O`, 32%; that for `CN(C(=O)C1CCCC1)C(c1cccc(F)c1)c1ccccn1` (centres undefined), 14.2%. Turning to `O=C(Nc1cccc(CNCc2cccs2)c1)C1CCCC1`, the cytotoxicity at 70.5 h was -15%. The result for `O=C(Cc1cccs1)N1C[C@@H]2COC[C@]2(COCc2cccnc2)C1` reads -5.53%; that for `Cc1nc(CN2CCN(C(=O)c3sccc3C3CC3)CC2)oc1C`, 12.6%.

With `CC(C)c1nnc2n1CCN(C(=O)c1ccc(-n3cnnc3)cc1)C2`, the cytotoxicity at 70.5 h was 27.3%. As to `CCOCC1CN(Cc2cnn(C)c2)Cc2cnn(C)c21` (centres undefined), the cytotoxicity at 70.5 h is -9.88%. For the compound `CCS(=O)(=O)N1CCc2ccc(NC(=O)Nc3ccccc3)cc21`, the cytotoxicity at 70.5 h is 9.4%.

Turning to `CC(C)N(C)Cc1nnc2n1CCCN(C(=O)C1CCCO1)C2` (centres undefined), the cytotoxicity at 70.5 h was -7.64%.

For the compound `COC[C@]12COC[C@H]1CN(C(=O)C1CC(F)(F)C1)C2`, the cytotoxicity at 70.5 h was -8.18%. The result for `Cc1cc(S(=O)(=O)N2CCCc3cc(Cl)ccc32)sc1C(=O)O` reads 2.62%. Under `CO[C@H]1CCN(S(=O)(=O)c2cn(C)cn2)[C@H]1Cc1cnn(C)c1` stands -14.3%; under `Cn1cc(S(=O)(=O)N2CCCC2CC(=O)c2cccs2)cn1` (centres undefined), -9.81%; under `Cc1nc(C2CCCN2CCCS(N)(=O)=O)no1` (centres undefined), 17%. On to `CCC(C)(C)NC(=O)Nc1nnc(-c2ccccn2)s1`, for which the cytotoxicity at 70.5 h was -10.1%. Under `COc1ncccc1CN1C[C@H]2C[C@@H](C(=O)NCC3CC3)N(C)[C@H]2C1` stands -12.9%. On to `CCN(CC)S(=O)(=O)c1ccc2c(c1)N(Cc1cccnc1)C(=O)CS2`, for which the cytotoxicity at 70.5 h was -4.53%.

On to `CN(C)c1ncnc2c1CCN(C(=O)c1cccnc1)CC2`, for which the cytotoxicity at 70.5 h was -6.66%. Under `Cc1ncsc1C(=O)N1CCN(Cc2cscn2)CC1` stands -1.83%; under `CN(C)CC1CSCCCN1S(=O)(=O)c1ccc(C(F)(F)F)cc1` (centres undefined), -3.11%. The result for `Cc1ccc(C(=O)N2CCC(Oc3ccccc3)CC2)c(=O)[nH]1` reads 10.3%; that for `CC(C)NC(=O)N1CC[C@@H](N(C)C)[C@@H]1Cc1ccncc1`, -6.16%. The result for `COc1ccccc1OCCN(C)Cc1c(C2CC2)[nH]c2ncccc12` reads 20.9%; that for `CCC(C)c1noc(C2CCN(C(=O)c3ccccn3)CC2)n1` (centres undefined), -3.62%; that for `CC(C)C(C)NC(=O)c1cccn1Cc1cccnc1` (centres undefined), -0.474%.

On to `COc1ccccc1CN1C(=O)O[C@@H]2CN(c3nccs3)C[C@@H]21`, for which the cytotoxicity at 70.5 h came out at 1.12%. Under `Cc1occc1C(=O)N1CCn2c(COCC3CC3)cnc2C1C` (centres undefined) stands -9.85%; under `COCC(c1ccccn1)N(C)C(=O)c1cc(-c2ccccc2O)n[nH]1` (centres undefined), -6.79%. Under `CCCN1CCN(S(=O)(=O)c2ncn(C)c2Cl)CC1` stands -4.77%; under `CCC(CC)C(=O)N1CCc2nc(N3CCCC3)nc(C)c2CC1`, -12.2%. The result for `CCN(CC)c1ccc(C(=O)N2CCCC2Cn2cc(C)cn2)cn1` (centres undefined) reads -5.59%; that for `CCc1noc(CN2CCN(C(=O)c3ccccc3F)CC2)n1`, 29.8%. As for `Cc1cc(NC(=O)N2CCN(c3nc(C)c(C)s3)CC2)no1`, the cytotoxicity at 70.5 h stood at 21.7%. Under `CC(=O)N1CC2(CCCCN2Cc2ccc(Cl)cc2)Cc2ccccc21` (centres undefined) stands 5.47%; under `O=C(NCC(F)(F)C(F)F)c1ccncc1`, -8.69%; under `CC(C)c1nnsc1CNC(=O)C1CCCN(C(=O)N(C)C)C1` (centres undefined), -11.2%.

For the compound `CCc1c(C)nn(CCN2CC3(CCOC3)CCC2=O)c1C` (centres undefined), the cytotoxicity at 70.5 h is -6.21%.

As to `CC(C)(C)C(=O)N[C@H]1CC[C@H](Nc2nccc(-c3ccncc3)n2)C1`, the cytotoxicity at 70.5 h was -6.97%. For the compound `CC[C@@H]1N(Cc2ccncc2)CCC[C@]12CCC(=O)N2CCOC`, the cytotoxicity at 70.5 h is -4.38%.

For `O=C(NCc1cccs1)C1CN(C(=O)c2cccs2)CC12CCOCC2` (centres undefined), the cytotoxicity at 70.5 h is -8.67%.

For `COc1ccc(OCc2nc(C(=O)N3CC[C@H](O)[C@@H](O)C3)co2)cc1`, the cytotoxicity at 70.5 h is -8.88%. The result for `Cc1csc2c(=O)n3c(nc12)CCN(C(=O)c1cccnc1)CC3` reads -19.9%. The result for `Cc1cc(=O)n2ncnc2n1CC(O)c1ccccc1F` (centres undefined) reads -10.7%; that for `OC1(Cn2ccc3ccncc32)CCN(Cc2ccccn2)CC1`, -2.48%; that for `O=C(O)CN1CCC(F)(F)C2(CCN(c3ccccc3)C2)C1` (centres undefined), -5.61%.

In the case of `CCCC(=O)Nc1cccc(C(=O)N(C)CCCC2CCCO2)c1` (centres undefined), the cytotoxicity at 70.5 h came out at 2.48%. The result for `CC(=O)Nc1nc(C(=O)N2CCCCC2Cn2cccn2)cs1` (centres undefined) reads -0.594%. Consider `CCCc1cc(=O)[nH]c2nnc(SCC(=O)OC)n12`, for which the cytotoxicity at 70.5 h was -8.96%. With `COc1ccccc1C(=O)N1C[C@@H]2CCCCN(CC(N)=O)[C@@H]2C1`, the cytotoxicity at 70.5 h was -11.4%.

With `Oc1ccccc1N1CCN(c2ncnc3sc4c(c23)CCNC4)CC1`, the cytotoxicity at 70.5 h was 2.19%. On to `Cc1nnc(SCCC(=O)N(C)Cc2ccc(F)cc2F)[nH]1`, for which the cytotoxicity at 70.5 h is 4.62%.

Turning to `CC(C)(C)Oc1ccc(NCC(=O)NCc2ccco2)cc1`, the cytotoxicity at 70.5 h was -18.5%. Under `CCNC(=O)C1(CC2CC(c3ccccc3OC)=NO2)CCOCC1` (centres undefined) stands -0.996%; under `O=C(COCC1CC1)N1CCCC(n2cccn2)C1` (centres undefined), 2.78%. For the compound `CCCS(=O)(=O)NCc1cccnc1OCc1ccccc1`, the cytotoxicity at 70.5 h is -7.41%. As for `Cc1cc(C(=O)NCc2cc(C)oc2C)no1`, the cytotoxicity at 70.5 h was -5.78%. The result for `CN1CCc2c(C#N)c(NCc3ccncc3)n3cnnc3c2C1` reads -14.7%; that for `Cc1nccn1C1CCCN(C(=O)c2cccc3c2OCO3)C1` (centres undefined), -9.12%; that for `COc1c(C(N)=O)cn(C)c1-c1nc2cc(NC(C)=O)ccc2n1C`, -14.7%. The result for `CN1CCC(Cc2noc(CC3CC3)n2)CC1` reads -7.67%.
